Each structure is given as a SMILES string. pIC50: −log10 of the molar value.

The test has as its target T1, human HPK1 protein (Homo sapiens, UniProt Q92918).
T1 construct: recombinant human HPK1 protein (a.a. 1-346) was expressed in Sf9 insect cells; GST (N); purchased Signalchem M23-11G; host or cells: Sf9 insect cells (baculovirus)
T1 sequence (Q92918 1-346): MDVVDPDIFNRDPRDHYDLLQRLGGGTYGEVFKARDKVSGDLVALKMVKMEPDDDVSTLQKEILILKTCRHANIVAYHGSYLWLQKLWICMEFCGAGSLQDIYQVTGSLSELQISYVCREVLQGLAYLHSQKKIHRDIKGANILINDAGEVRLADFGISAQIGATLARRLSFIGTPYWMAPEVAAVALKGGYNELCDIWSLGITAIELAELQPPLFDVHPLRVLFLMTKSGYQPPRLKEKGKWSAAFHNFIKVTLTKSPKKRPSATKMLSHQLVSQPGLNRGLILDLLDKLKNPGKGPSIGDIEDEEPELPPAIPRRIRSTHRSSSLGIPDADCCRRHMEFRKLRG
Put plainly: Human HPK1 protein TR-FRET assay. To be noted: 1 mM ATP, Table 19. In kind it is biochemical. The method, then: Exemplary compounds from the above Examples were tested for ability to inhibit HPK1 using a human HPK1 protein TR-FRET Assay. Assay procedures and results are described below.
N-terminal GST-tagged recombinant human HPK1 protein (a.a. 1-346) was expressed in Sf9 insect cells using a baculovirus expression system (Signalchem Catalog #M23-11G). The enzyme was diluted in assay buffer (50 mM Tris pH 7.5, 1 mM MgCl2, 0.01% NP-40 and 2 mM DTT) to obtain a 4× working solution at a concentration of 40 nM HPK1 enzyme.
A 5 μM stock of ULight™ CREBtide peptide RRPSYRK (Perkin Elmer Product No. TRF0107-M) derived from human cAMP Response Element Binding (CREB) Protein was prepared in storage buffer containing 50 mM Tris-HCl (pH 7.4), 0.9% NaCl, 0.1% BSA, and 0.05% sodium azide. The CREBtide substrate was diluted in assay buffer (50 mM Tris pH 7.5, 1 mM MgCl2, 0.01% NP-40, 2 mM DTT) with 2 mM ATP to a final concentration of 200 nM CREBtide peptide to obtain a 2× working solution of substrate. HPK1 enzyme and CREBtide substrate solutions were mixed with compounds diluted in DMSO to obtain a final concentration of enzyme, substrate, and ATP of 10 nM, 100 nM, and 1 mM, respectively, in 1% DMSO. The final assay mixture was incubated at room temperature for 60 minutes.
A solution of Europium-labeled anti-phospho-CREB (Ser133) antibody (Perkin Elmer Product No. TRF0200-M), EDTA and LANCE™ Detection Buffer (Perkin Elmer Product No. CR97-100) were added to each well to obtain a final concentration of 2 nM antibody, 10 mM EDTA and 1× LANCE buffer. The resulting mixture was incubated at room temperature for 60 minutes.
The fluorescence resonance energy transfer (FRET) signal was measured on an Envision plate reader: Excitation filter=340 nm, APC emission=665 nm, Europium emission=615 nm, dichroic mirror=D400/D630, delay time=100 μs, and integration time=200 μs. The half maximal inhibitory concentration (IC50) values for compounds were calculated from the quotient of the fluorescence signal at 665 nm divided by the fluorescence signal at 615 nm. The quotient of the fluorescence signals in the presence of DMSO without compound is set as 100 percent enzymatic activity. A 4-parameter logistic model in PRISM (GraphPad) was used to calculate the IC50 for a given compound.
(Time-resolved FRET reads energy transfer from a long-lived donor to a nearby acceptor.)
One may read the pIC50 as the negative decadic logarithm of the IC50, by convention in mol/L. A lower pIC50 goes with a high IC50. Compound `Cc1cc2c(Oc3ccc4c(c3)[C@H](C)N(C(=O)Nc3cnc(OC5CCN(C)CC5F)c(C(F)(F)F)c3)CC4)ccnc2[nH]1` (stereo in doubt) [VI-11] had a pIC50 of 5.30 to 6.30.
Compound `CCN1CCN(Cc2ccc(NC(=O)N3CCc4ccc(Oc5cc(NC)ncn5)cc4C3)cc2C(F)(F)F)CC1` [II-1] gave a pIC50 of over 6.30.
In the case of `CCN1CCN(Cc2ccc(NC(=O)N3CCc4ccc(Oc5ncnn6cc(-c7cnn(C)c7)cc56)cc4C3)cc2C(F)(F)F)CC1` [II-2], the pIC50 is over 6.30.
In the case of `CCN1CCN(Cc2ccc(NC(=O)N3CCc4ccc(Oc5ncnc6[nH]ccc56)cc4C3)cc2C(F)(F)F)CC1` [II-3] it was over 6.30; in that of `CCN1CCN(Cc2ccc(NC(=O)N3CCc4ccc(Oc5ccnc6[nH]ncc56)cc4C3)cc2C(F)(F)F)CC1` [II-4], over 6.30.
The compound `CCN1CCN(Cc2ccc(NC(=O)N3CCc4ccc(Oc5ncnc6[nH]ncc56)cc4C3)cc2C(F)(F)F)CC1` [II-5] showed a pIC50 of over 6.30.
In the case of `CCN1CCN(Cc2ccc(NC(=O)N3CCc4ccc(Oc5ncnc6[nH]cnc56)cc4C3)cc2C(F)(F)F)CC1` [II-6] it was over 6.30; in that of `CCN1CCN(Cc2ccc(NC(=O)N3CCc4ccc(Oc5ncnn6cc(C)cc56)cc4C3)cc2C(F)(F)F)CC1` [II-7], over 6.30.
`CCN1CCN(Cc2ccc(NC(=O)N3CCc4ccc(Oc5ncnn6cc(F)cc56)cc4C3)cc2C(F)(F)F)CC1` [II-8] showed a pIC50 of over 6.30.
`CCN1CCN(Cc2ccc(NC(=O)N3CCc4ccc(Oc5cc(NC(C)=O)ncn5)cc4C3)cc2C(F)(F)F)CC1` [II-9] showed a pIC50 of over 6.30.
Turning to `CCN1CCN(Cc2ccc(NC(=O)N3CCc4ccc(Oc5cc(NC(=O)C6CC6)ncn5)cc4C3)cc2C(F)(F)F)CC1` [II-10], the pIC50 was over 6.30.
As for `CCN1CCN(Cc2ccc(NC(=O)N3CCc4ccc(Oc5ccnc6c5CCC(=O)N6)cc4C3)cc2C(F)(F)F)CC1` [II-11], the pIC50 is over 6.30.
As to `CCN1CCN(Cc2ccc(NC(=O)N3CCc4ccc(Oc5ccnc6[nH]c(=O)ccc56)cc4C3)cc2C(F)(F)F)CC1` [II-12], the pIC50 is over 6.30.
For `CCN1CCN(Cc2ccc(NC(=O)N3CCc4ccc(Oc5ccnc(NC)c5)cc4C3)cc2C(F)(F)F)CC1` [II-13], the negative logarithm of the IC50 (pIC50) is over 6.30.
On to `CCN1CCN(Cc2ccc(NC(=O)N3CCc4ccc(Oc5ccnc(NC(C)=O)c5)cc4C3)cc2C(F)(F)F)CC1` [II-14], for which the pIC50 is over 6.30.
The value for `CCN1CCN(Cc2ccc(NC(=O)N3CCc4ccc(Oc5ccnc(NC(=O)C6CC6)c5)cc4C3)cc2C(F)(F)F)CC1` [II-15] was over 6.30.
The value for `CN1CCC(Oc2ccc(NC(=O)N3CCc4ccc(Oc5ncnn6cccc56)cc4C3)cc2C(F)(F)F)CC1` [II-16] was 5.30 to 6.30; that for `CCN1CCN(Cc2ccc(NC(=O)N3CCc4ccc(Oc5cc(Nc6ncc[nH]6)ncn5)cc4C3)cc2C(F)(F)F)CC1` [II-17] was over 6.30.
In the case of `CCN1CCN(Cc2ccc(NC(=O)N3CCc4ccc(Oc5ccnn6cccc56)cc4C3)cc2C(F)(F)F)CC1` [II-19] it was over 6.30; in that of `CCN1CCN(Cc2ccc(NC(=O)N3CCc4ccc(Oc5ccnc6[nH]cnc56)cc4C3)cc2C(F)(F)F)CC1` [II-20], over 6.30.
`CCN1CCN(Cc2ccc(NC(=O)N3CCc4ccc(Oc5cn[nH]c5)cc4C3)cc2C(F)(F)F)CC1` [II-21] showed a pIC50 of 5.30 to 6.30.
The value for `CCN1CCN(Cc2ccc(NC(=O)N3CCc4ccc(Oc5ccnn6cc(F)cc56)cc4C3)cc2C(F)(F)F)CC1` [II-22] was over 6.30; that for `CCN1CCN(Cc2ccc(NC(=O)N3CCc4ccc(Oc5ccnn6cc(Cl)cc56)cc4C3)cc2C(F)(F)F)CC1` [II-23] was over 6.30.
In the case of `CCN1CCN(Cc2ccc(NC(=O)N3CCc4ccc(Oc5ccnn6cc(Br)cc56)cc4C3)cc2C(F)(F)F)CC1` [II-24] it was over 6.30; in that of `CCN1CCN(Cc2ccc(NC(=O)N3CCc4ccc(Oc5ccnn6cc(-c7c[nH]cn7)cc56)cc4C3)cc2C(F)(F)F)CC1` [II-25], over 6.30.
In the case of `CCN1CCN(Cc2ccc(NC(=O)N3CCc4ccc(Oc5ccnn6cc(-c7cnn(C)c7)cc56)cc4C3)cc2C(F)(F)F)CC1` [II-26] it was over 6.30.
